Results on one compound are retold here after patent US12390441B2, “Immunomodulating o-het/aryl azalides” (Zoetis Services LLC, priority 2020, dated 2025).

The term IC50 denotes the concentration that inhibits the measured activity by half. As a reminder, the mortality is the share of the test organisms that died. As a reminder, the MIC50 is an inhibitory concentration at the 50% level, which refers to growth in some studies and to a panel of isolates in others. The MIC90 is an inhibitory concentration at the 90% level, which refers to growth in some studies and to a panel of isolates in others.

One data set deals with TNF-α. Briefly: Whole blood assay, LPS stimulation, MSD cytokine detection. The conditions noted are these: Bos taurus, fresh whole bovine blood. The data set is classed as cell-based.
Another data set concerns IL-1β. The data set is described as above. It is filed as cell-based, bovine. The note with it: top dose 500 μM; cellular toxicity signal.
The subject of another data set is P. multocida 46572. Description: In vivo mouse lung infection challenge model (murine). Further details: species or system CD-1 female mice. The procedure, abridged: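 CD-1 female mice were challenged intranasally with mid-log P. multocida 46572 (target 5×10^2 CFU/mouse), then given 20 mg/kg subcutaneously in buffered (~pH 5.4) propylene glycol/monothioglycerol/water. Mortality was followed to Day 10, analysed by generalized mixed model and survival analysis; harmonized survival is relative to vehicle and positive controls.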

Another data set concerns P. multocida. Description: Murine P. multocida intranasal challenge study, survival. The data set is classed as in vivo, mice. The conditions noted are these: 5×10^3 CFU/mouse; subcutaneous 18 hours after challenge; tulathromycin 16 mg/kg, M9 32 mg/kg, ceftiofur 9 mg/kg.
The subject of the next data set is upstream regulators. Briefly: Lung tissue RNA sequence analysis, ingenuity pathway analysis. The note with it: M9 32 mg/kg (T03). It is filed as in vivo, mice. Here is the method:
In one murine P. multocida intranasal challenge study, mice were administered tulathromycin (16 mg/kg; T02), M9 (32 mg/kg; T03), or ceftiofur (9 mg/kg; T04) by subcutaneous injection 18 hours after bacterial challenge (5×10^3 CFU/mouse) for lung tissue RNA sequence analysis. […] Data was analyzed based on the number of genes being modulated in the same direction that were associated with a given upstream regulator. An activation z-score of 2 or greater is considered significant and the direction change is indicated by +(activated) or −(inhibited).

The next data set relates to natural BRD infection. Description: Natural bovine respiratory disease study. The data set is classed as in vivo, beef calves. The conditions noted are these: 14-day observation.
Data set [1] relates to M. haemolytica (OSU-012103-BHI). The conditions noted are these: 10 mg/kg.
A short description of data set [2]: PK study, plasma concentration. The conditions noted are these: 10 mg/kg dose.
For the next data set, the system named is IL-6. Description: Plasma IL-6 biomarker in bovine M. haemolytica challenge.
The subject of data set [3] is M. haemolytica (OSU-012103-BHI). Briefly: In vivo bovine lung infection (intratracheal) challenge model.
For data set [4], the system named is Lung bacteria isolated at necropsy. Briefly: MIC of recovered isolates, natural bovine respiratory disease study.
Procedure: (§1) The primary clinical endpoint for efficacy was treatment failure/success over a 14-day observation period. Clinically normal beef calves (150-200 kg) at moderate risk for BRD were dosed on arrival to the feedlot. Animals (N=114/group) received saline (T01), 5 mg/kg M9 (T02) or 10 mg/kg M9 (T03); or Zactran (T04). […] Bacterial isolates were collected at necropsy and MICs were evaluated (Table 4).
Where [5] appears, read: H. somni (25) lung isolates at necropsy.

SMILES strings stand for the structures. Like-named read-outs stand apart in the source and are kept apart here.

Procedure for natural BRD infection: as §1

As to `CCCNC[C@]1(O)[C@H](C)O[C@@H](O[C@H]2[C@H](C)[C@@H](O[C@@H]3O[C@H](C)C[C@H](NC)[C@H]3O)[C@](C)(O)C[C@@H](C)CN[C@H](C)[C@@H](O)[C@](C)(O)[C@@H](CC)OC(=O)[C@@H]2C)C[C@@]1(C)OC` [Example M9, (2R,3S,4R,5R,8R,10R,11R,12S,13S,14R)-2-ethyl-3,4,10-trihydroxy-13-(((2R,4R,5S,6S)-5-hydroxy-4-methoxy-4,6-dimethyl-5-((propylamino)methyl)-tetrahydro-2H-pyran-2-yl)oxy)-11-(((2S,3R,4S,6R)-3-hydroxy-6-methyl-4-(methylamino)tetrahydro-2H-pyran-2-yl)oxy)-3,5,8,10,12,14-hexamethyl-1-oxa-6-azacyclopentadecan-15-one], in the data set with TNF-α, the half-maximal inhibitory concentration (IC50) was determined as 250 µM. The “overstimulation of IL-1B” value with IL-1β is over 500 µM. In addition, the Mouse survival in the data set with P. multocida 46572 (M9 positive control, 20 mg/kg) was 90-100%. In the data set on P. multocida 46572 (mouse, in vivo), the “clinical efficacy, P. multocida infection in mice” value is “clinically efficacious”. In addition, the “Survival at Day 7” value with P. multocida is about 50%. In the data set with upstream regulators, the “activation z-score, IFNγ” value was −5.759; the “activation z-score, IL-1β” value is reported as −5.947; the “activation z-score, STAT1” value is on record as −2.787; the “activation z-score, TNF” value is −4.669. For the same compound, in the data set with upstream regulators, the “activation z-score, lipopolysaccharide” value is −6.725 and the “activation z-score, poly rl:rC-RNA” value is recorded as −5.289. Further, the “unique genes up or down regulated (with significance)” value with upstream regulators (total lung tissue) is “at least 226”. Besides, the “Percent failure (treatment failure)” value in the data set on natural BRD infection (5 mg/kg (T02)) is reported as 19.3%. For the same compound, the “Percent failure (treatment failure)” value in the data set with natural BRD infection (10 mg/kg (T03)) was 8.8%. Moreover, the lung lesion scores in [1] (inhaled or nasal) is 29. In data set [1] (separate study, vs. saline 38.9%), this compound displayed a mortality of 13%. Besides, in [2], the maximum plasma concentration is 5 µg/mL. For the same compound, the IL-6 levels entry with IL-6 is reported as “significantly reduced”. In [3] (No challenge, M9 10 mg/kg (T04)), the mortality is reported as 0/6. For the same compound, the “Mortality (%)” value in data set [3] (second intratracheal challenge study, 10 mg/kg (T05)) is given as 12.5%. For the same compound, in data set [4] (setting [5]), the MIC50 came to 32 µg/mL, the MIC90 was 32 µg/mL and the “MIC Range” value fell in the range of 8 to 64 µg/mL. Also, the “MIC, BRD bacterial isolates collected at necropsy” value in [4] (some of the isolates) is under 64 µg/mL.
